# Like-named read-outs stand apart in the source and are kept apart here.
# Target: T1, hROMK (hKir1.1) (Homo sapiens, UniProt P48048)
# T1 construct: expressed in transfected cells
# T1 sequence (P48048 1-391): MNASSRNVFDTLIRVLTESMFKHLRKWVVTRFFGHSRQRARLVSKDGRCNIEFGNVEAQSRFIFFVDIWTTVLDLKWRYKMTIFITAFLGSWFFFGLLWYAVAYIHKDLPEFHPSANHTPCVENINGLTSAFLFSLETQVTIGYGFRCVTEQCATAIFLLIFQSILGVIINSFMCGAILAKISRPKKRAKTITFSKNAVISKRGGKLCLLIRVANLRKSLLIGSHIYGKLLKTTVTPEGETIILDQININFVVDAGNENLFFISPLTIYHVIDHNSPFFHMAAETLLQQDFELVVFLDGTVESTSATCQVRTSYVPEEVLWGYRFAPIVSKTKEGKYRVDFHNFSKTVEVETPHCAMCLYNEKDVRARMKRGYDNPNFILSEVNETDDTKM
# Test: Thallium Flux Assay
# Assay type: cell-based
# Procedure: Cell Culture Conditions- HEK293 cells stably expressing hROMK (hKir1.1) were grown at 37°C in a 10%CO2 humidified incubator in complete growth media: Dulbecco's Modified Eagle Medium supplemented with non-essential amino acids, Penicillin/Streptomycin/Glutamine, G418 and FBS. At >80% confluency, aspirate the media from the flask and rinse with 10 mL Calcium/Magnesium-free PBS. […] To dislodge the cell, gently bang the side of the flask with your hand. Triturate the cells completely and then transfer the cells to 25 mL complete media. Centrifuge at 1,500 rpm for 6 min followed by resuspension in complete growth media and determine cell concentration. […] Under ideal growth conditions and appropriate tissue culture practices, this cell line is stable for 40-45 passages.
# • FluxOR™ Reagent (Component A) • FluxOR™ Assay Buffer (Component B) - 10X Concentrate • PowerLoad™ Concentrate (Component C) - 100X Concentrate • Probenecid (Component D) - Lyophilized sample is kept at -20°C. Water soluble, 100X after solubilization in 1 mL water. […] Store at 4°C. • Thallium sulfate (Tl2SO4) Concentrate (Component G) - 50 mM in water. Store at 4°C • DMSO (dimethyl sulfoxide, Component H) - 1 mL (100%)
# • 1000X FluxOR™ Reagent: Reconstitute a vial of component A in 100 µl DMSO; Mix well; Store 10 µl aliquots at -20°C • 1X FluxOR™ Assay Buffer: Dilute Component B 10-fold with water; Adjust pH to 7.4 with Hepes/NaOH; Filter and store at 4°C • Probenecid/Assay Buffer: 100 mL of 1X FluxOR™ Assay Buffer; 1 mL of reconstituted component D; Store at 4°C • Loading Buffer (per microplate): 10 µl 1000X FluxOR™ Reagent; 100 µl component C; 10 mL Probenecid/Assay Buffer • Compound Buffer (per microplate): 20 mL Probenecid/Assay Buffer; 0.3 mM ouabain (10 mM ouabain in water can be stored in amber bottle/aluminum foil at room temperature); Test compound • 1X FluxOR™Chloride-Free Buffer: Prepare 1X working solution in water. Can be stored at room temperature • Stimulant Buffer (prepared at 5X final concentration in 1X FluxOR™Chloride-Free Buffer): 7.5 mM Thallium sulfate and 0.75 mM Potassium sulfate (to give a final assay concentration of 3 mM Thallium/ 0.3 mM Potassium). Store at 4°C when not in use. If kept sterile, this solution is good for months.
# Assay protocol- The ROMK channel functional thallium flux assay is performed in 384 wells, using the FLIPR-Tetra instrument. HEK-hKir1.1 cells are seeded in Poly-D-Lysine microplates and kept in a 37°C-10%CO2 incubator overnight. On the day of the experiment, the growth media is replaced with the FluxOR™ reagent loading buffer and incubated, protected from light, at ambient temperature (23-25°C) for 90 min. The loading buffer is replaced with assay buffer ± test compound followed by 30 min incubation at ambient temperature, where the Thallium/Potassium stimulant is added to the microplate.
# • 1. Seed HEK-hKir1.1 cells (50 µl at 20,000 cells/well) in 384-well PDL coated Microplates • 2. Allow cells to adhere overnight in humidified 37°C/10%CO2 incubator • 3. Completely remove cell growth media from microplate and replace with 25 µl loading buffer • 4. Incubate Microplate at room temperature, protected form light, for 90 min • 5. Remove loading buffer and replace with 25 µl 1x Assay Buffer ± test compound. • 6. Incubate microplate at room temperature, protected form light, for 30 min • 7. […] Excitation = 400 nm, Emission = 460 & 580 nm. Collect data for ∼ 10 min.
# Data Calculation- The fluorescence intensity of wells containing 3 µM of a standard control ROMK inhibitor of the present invention is used to define the ROMK-sensitive component of thallium flux. Fluorescence in the presence of test compounds is normalized to control values to provide % fluorescence change.
# [1] = HEK293 cells stably expressing hROMK (hKir1.1), FLIPR-Tetra, read-out: Thallium Flux IC50
SMILES,IC50 (Thallium Flux IC50) [nM],IC50 [1] [nM]
"Cc1c([C@@H]2CN3CCN(C(=O)Cc4ccc(-n5cnnn5)nn4)C[C@@H]3CO2)ccc(F)c1C#N [Example 156, 6-fluoro-2-methyl-3-[(3R,9aR)-8-{[6-(1H-tetrazol-1-yl)pyridazin-3-yl]acetyl}octahydropyrazino [2,1-c][1,4]oxazin-3-yl]benzonitrile]",210,–
"O=C1OCc2cc([C@@H]3CN4CCN(C(=O)Cc5ccc(-n6cnnn6)cn5)C[C@H]4CO3)ccc21 [Example 27, 5-[(3R,9aS)-8-{[5-(1H-tetrazol-1-yl)pyridin-2-yl]acetyl}octahydropyrazino[2,1-c][1,4]oxazin-3-yl]-2-benzofuran-1(3H)-one]",–,100
"COc1cc([C@@H]2CN3CCN(C(=O)Cc4cnc(-n5cnnn5)nc4)C[C@H]3CO2)ccc1C#N [Example 144, 2-methoxy-4-[(3R,9aS)-8-{[2-(1H-tetrazol-1-yl)pyrimidin-5-yl]acetyl}octahydropyrazino[2,1-c][1,4]oxazin-3-yl]benzonitrile]",–,390
"Cc1c([C@@H]2CN3CCN(C(=O)Cc4cnc(-n5cnnn5)nc4)C[C@H]3CN2)ccc(F)c1C#N [Example 193, 6-fluoro-2-methyl-3-[(3R,9aR)-8-{[2-(1H-tetrazol-1-yl)pyrimidin-5-yl]acetyl}octahydro-2H-pyrazino[1,2-a]pyrazin-3-yl]benzonitrile]",100,–
"Cc1nc(-n2cnnn2)ccc1CC(=O)N1CCN2C[C@@H](c3ccc(F)c(C#N)c3C)OC[C@@H]2C1 [Example 77, 6-fluoro-2-methyl-3-[(3R,9aS)-8-{[2-methyl-6-(1H-tetrazol-1-vl)pvridin-3-yl]acetyl}octahydropyrazino[2,1-c][1,4]oxazin-3-yl]benzonitrile]",–,100
"O=C1OCCc2cc([C@@H]3CN4CCN(C(=O)Cc5cnc(-n6cnnn6)cn5)C[C@H]4CO3)ccc21 [Example 80, 6-[(3R,9aS)-8-{[5-(1H-tetrazol-1-yl)pyrazin-2-yl]acetyl}octahydropyrazino[2,1-c][1,4]oxazin-3-yl]-3,4-dihydro-1H-isochromen-1-one]",–,500
"Cc1c([C@@H]2CN3CCN(C(=O)Nc4ccc(-n5cnnn5)cn4)C[C@H]3CO2)ccc(F)c1C#N [Example 201, (3R,9aS)-3-(3-cyano-4-fluoro-2-methylphenyl)-N-[5-(1H-tetrazol-1-yl)pyridin-2-yl]hexahydropyrazino[2,1-c][1,4]oxazine-8(1H)-carboxamide]",–,320
"COc1c([C@@H]2CN3CCN(C(=O)Cc4cnc(-n5cnnn5)nc4)C[C@H]3CO2)ccc(F)c1C#N [Example 140, 6-fluoro-2-methoxy-3-[(3R,9aS)-8-{[2-(1H-tetrazol-1-vl)pvrimidin-5-yl]acetyl}octahydropyrazino[2,1-c][1,4]oxazin-3-yl]benzonitrile]",–,120
"O=C(Cc1ccc(-n2cnnn2)nc1)N1CCN2C[C@@H](c3ccc4nonc4c3)OC[C@@H]2C1 [Example 179, (3R,9aS)-3-(2,1,3-benzoxadiazol-5-yl)-8-{[6-(1H-tetrazol-1-vl)pvridin-3-yl]acetyl}octahydropyrazino[2,1-c][1,4]oxazine]",180,–
"O=C1OCCc2cc([C@H]3CN4CCN(C(=O)Cc5ccc(-n6cnnn6)nc5)C[C@@H]4CO3)ccc21 [Example 55, 6-[(3S,9aR)-8-{[6-(1H-tetrazol-1-yl)pyridin-3-yl]acetyl}octahydropyrazino[2,1-c][1,4]oxazin-3-yl]-3,4-dihydro-1H-isochromen-1-one]",120,–
"O=C(Cc1cnc(-n2cnnn2)nc1)N1CCN2C[C@@H](c3ccc4nonc4c3)OC[C@@H]2C1 [Example 175, (3R,9aS)-3-(2,1,3-benzoxadiazol-5-yl)-8-{[2-(1H-tetrazol-1-vl)pvrimidin-5-yl]acetyl}octahydropyrazino[2,1-c][1,4]oxazine]",–,530
"COc1cc([C@H]2CN3CCN(C(=O)Cc4ccc(-n5cnnn5)nc4)C[C@@H]3CO2)cc(F)c1C#N [Example 112, 2-fluoro-6-methoxy-4-[(3S,9aR)-8-{[6-(1H-tetrazol-1-vl)pvridin-3-yl]acetyl}octahydropyrazino[2,1-c][1,4]oxazin-3-yl]benzonitrile]",–,220
